Data: patent US6362369B1, “Phthalic acid diamide derivatives fluorine-containing aniline compounds as starting material, agricultural and horticultural insecticides, and a method for application of the insecticides” (Nihon Nohyaku Co., Ltd., priority 1997, dated 2002)

Columns and labels:
[1] = system: rice leafroller (Cnaphalocrocis medinalis); assay: Insecticidal effect on rice leafroller (Test Example 3); type: in vivo; conditions: 500 ppm, four days after inoculation, 25° C., humidity 70%; for Insecticidal effect, Test Example 3: rice lamina immersed
Description: Insecticidal effect on rice leafroller (Cnaphalocrocis medinalis)
After air-drying, the lamina was placed in a plastic Petri dish with a diameter of 9 cm whose bottom had been covered with a wetted filter paper. The lamina was inoculated with third-instar larvae of rice leafroller, after which the dish was allowed to stand in a room thermostated at 25° C. and having a humidity of 70%. Four days after the inoculation, the dead and alive were counted and the insecticidal effect was judged according to the criterion shown in Test Example 1. The test was carried out with triplicate groups of 10 insects.

[2] = system: diamondback moth (Plutella xylostella); assay: Insecticidal effect on diamondback moth (Test Example 1); type: in vivo; conditions: for Insecticidal effect, Test Example 1 / Insecticidal effect (Test Example 1), judged from mortality: diamondback moth; for Insecticidal effect on diamondback moth (Test Example 1), judged grade: mortality judged according to the criterion shown in Test Example 1; for Insecticidal effect (Test Example 1), judged from mortality: judged by the criterion of Test Example 1
In short: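 Chinese cabbage seedlings carrying eggs laid by released adult moths were immersed in treatment, air-dried and held at 25° C. Hatched insects were counted six days after immersion, and mortality was calculated and scored against a fixed criterion. Three replicate groups of 10 insects were used.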

[3] = rice leafroller third-instar larvae
[4] = third-instar larvae of rice leafroller
[5] = judged by the mortality criterion of Test Example 1
[6] = mortality judged by criterion of Test Example 1

## Cc1cc(OC(F)F)ccc1NC(=O)c1cccc(I)c1C(=O)NCc1ccccc1Cl [compound 1432]
[1]; [3]
  Insecticidal effect, Test Example 3: A (100)

## Cc1cc(C(F)(F)C(F)(F)F)ccc1NC(=O)c1c(I)cccc1C(=O)NCCC(C)C [compound 1016]
[1]; [3]
  Insecticidal effect, Test Example 3: A (100)

## COC(=O)c1ccc(NC(=O)c2ccccc2C(=O)NC(C)C)c(C)c1 [compound 71]
[1]; [4]
  Insecticidal effect, Test Example 3: D (79-50)

## Cc1cc(SC(F)(F)C(F)(F)F)ccc1NC(=O)c1c(I)cccc1C(=O)NC(C)C [compound 910]
[1]; rice lamina dip, third-instar larvae
  Insecticidal effect on rice leafroller (Test Example 3), judged grade: A (100)

## CC(C)NC(=O)c1c(I)cccc1C(=O)Nc1ccc(C(F)(F)F)cc1 [compound 349]
[1]; [4]
  Insecticidal effect, Test Example 3: A (100)

## CC(C)NC(=O)c1ccccc1C(=O)Nc1ccc(SC(F)(F)C(F)(F)Br)cc1 [compound 37]
[2]; [5]
  Insecticidal effect, Test Example 1: A (100)

## CC(C)NC(=O)c1c(C(=O)Nc2ccc(F)c(F)c2)cccc1[N+](=O)[O-] [compound 642]
[2]
  Insecticidal effect on diamondback moth (Test Example 1), judged grade: A (100)

## CC(C)NC(=O)c1c(I)cccc1C(=O)Nc1cccc(-c2csc(C(F)(F)F)n2)c1 [compound 1658]
[2]
  Insecticidal effect (Test Example 1), judged from mortality: A (100)

## CC(C)NC(=O)c1c(C(=O)Nc2cccc(C#N)c2)cccc1[N+](=O)[O-] [compound 597]
[2]
  Insecticidal effect on diamondback moth (Test Example 1), judged grade: B (99-90)

## CCNC(=O)c1cccc(F)c1C(=O)Nc1ccc(C(F)(F)C(F)(F)F)cc1F [compound 1511]
[2]
  Insecticidal effect (Test Example 1), judged from mortality: A (100)

## Cc1cc(Oc2c(F)c(F)c(F)c(F)c2F)ccc1NC(=O)c1c(F)cccc1C(=O)NC(C)C [compound 573]
[2]
  Insecticidal effect on diamondback moth (Test Example 1), judged grade: A (100)

## Cc1cc(SC(C)C)ccc1NC(=O)c1cccc(I)c1C(=O)NC(C)C [compound 402]
[2]; [5]
  Insecticidal effect, Test Example 1: A (100)

## Cc1ccc(F)cc1NC(=O)c1cc(Cl)ccc1C(=O)NC(C)C [compound 192]
[2]; [5]
  Insecticidal effect, Test Example 1: A (100)

## Cc1cc(C(F)(F)C(F)(F)F)c(C)cc1NC(=O)c1cccc(I)c1C(=O)NC(C)(C)C [compound 1611]
[2]
  Insecticidal effect (Test Example 1), judged from mortality: A (100)

## CC(C)NC(=O)c1ccccc1C(=O)Nc1ccc(SC(F)F)cc1 [compound 32]
[2]; [5]
  Insecticidal effect, Test Example 1: A (100)

## Cc1cc(C(F)(F)C(F)(F)F)ccc1NC(=O)c1c(Cl)cccc1C(=O)NCCCc1ccccc1 [compound 1332]
[2]; [6]
  Insecticidal effect, Test Example 1: A (100)

## CCCNC(=O)c1cccc(I)c1C(=O)Nc1ccc(OC(F)(F)C(F)F)cc1C [compound 1059]
[2]; [6]
  Insecticidal effect, Test Example 1: A (100)

## Cc1cc(OC(F)F)ccc1NC(=O)c1cccc([N+](=O)[O-])c1C(=O)NC(C)C(C)C (centres unmarked) [compound 846]
[2]
  Insecticidal effect on diamondback moth (Test Example 1), judged grade: A (100)

## CC(C)NC(=O)c1cccc(F)c1C(=O)Nc1ccc(OC(F)(F)F)cc1 [compound 537]
[2]
  Insecticidal effect on diamondback moth (Test Example 1), judged grade: A (100)

## Cc1cc(C(F)(F)C(F)(F)F)ccc1NC(=O)c1cccc(Cl)c1C(=O)NCC(O)c1ccccc1 (centres unmarked) [compound 1476]
[2]
  Insecticidal effect (Test Example 1), judged from mortality: A (100)

## CC(C)NC(=O)c1c(C(=O)Nc2ccc3c(c2)OCO3)cccc1[N+](=O)[O-] [compound 733]
[2]
  Insecticidal effect on diamondback moth (Test Example 1), judged grade: A (100)

## COc1ccc(NC(=O)c2cccc([N+](=O)[O-])c2C(=O)NC(C)C)cc1 [compound 614]
[2]
  Insecticidal effect on diamondback moth (Test Example 1), judged grade: A (100)

## CC(C)NC(=O)c1cccc(Cl)c1C(=O)Nc1ccc(SC(F)(F)C(F)F)cc1 [compound 203]
[2]; [5]
  Insecticidal effect, Test Example 1: A (100)

## Cc1cc(C(F)(F)C(F)(F)F)ccc1NC(=O)c1c(I)cccc1C(=O)NCc1ccccc1 [compound 1401]
[2]; [6]
  Insecticidal effect, Test Example 1: A (100)

## CC(C)NC(=O)c1c(C(=O)Nc2ccc(SCC(F)(F)F)cc2)cccc1[N+](=O)[O-] [compound 624]
[2]
  Insecticidal effect on diamondback moth (Test Example 1), judged grade: A (100)

## Cc1cc(OC(F)F)ccc1NC(=O)c1cccc(Cl)c1C(=O)NCc1ccccc1Cl [compound 1423]
[2]; [6]
  Insecticidal effect, Test Example 1: A (100)

## CC(C)NC(=O)c1c(C(=O)Nc2ccc(Cl)c(C(F)(F)F)c2)cccc1[N+](=O)[O-] [compound 678]
[2]
  Insecticidal effect on diamondback moth (Test Example 1), judged grade: A (100)

## CC(C)NC(=O)c1c(C(=O)Nc2ccc(SC(F)(F)C(F)F)cc2)cccc1[N+](=O)[O-] [compound 626]
[2]
  Insecticidal effect on diamondback moth (Test Example 1), judged grade: A (100)

## Cc1cc(C(F)(F)C(F)(F)F)ccc1NC(=O)c1c(I)cccc1C(=O)N[C@@H](C)CO [compound 1518]
[2]
  Insecticidal effect (Test Example 1), judged from mortality: A (100)

## CCN(CC)C(=O)c1c(OC(F)(F)F)cccc1C(=O)Nc1ccc(C(F)(C(F)(F)F)C(F)(F)F)cc1C [compound 1238]
[2]; [6]
  Insecticidal effect, Test Example 1: A (100)

## Cc1cc(C)c(NC(=O)c2cccc([N+](=O)[O-])c2C(=O)NC(C)C)c(C)c1 [compound 652]
[2]
  Insecticidal effect on diamondback moth (Test Example 1), judged grade: A (100)

## Cc1cc(Cl)ccc1N(C)C(=O)c1ccccc1C(=O)NC(C)C [compound 827]
[2]
  Insecticidal effect on diamondback moth (Test Example 1), judged grade: A (100)

## COc1cccc(CNC(=O)c2c(Cl)cccc2C(=O)Nc2ccc(C(F)(F)C(F)(F)F)cc2C)c1 [compound 1345]
[2]; [6]
  Insecticidal effect, Test Example 1: A (100)

## Cc1cc(OC(F)F)ccc1NC(=O)c1cccc(I)c1C(=O)N(C)Cc1ccccc1 [compound 1440]
[2]; [6]
  Insecticidal effect, Test Example 1: A (100)

## Cc1cc(Cl)ccc1NC(=O)c1c(I)cccc1C(=O)NC(C)C [compound 428]
[2]; [5]
  Insecticidal effect, Test Example 1: A (100)

## CCc1cccc(CC)c1NC(=O)c1cccc([N+](=O)[O-])c1C(=O)NC(C)C [compound 653]
[2]
  Insecticidal effect on diamondback moth (Test Example 1), judged grade: A (100)

## CSc1cccc(NC(=O)c2cccc([N+](=O)[O-])c2C(=O)NC(C)C)c1 [compound 621]
[2]
  Insecticidal effect on diamondback moth (Test Example 1), judged grade: A (100)

## CC(C)NC(=O)c1cccc(Cl)c1C(=O)Nc1ccc(C=C(Cl)C(F)(F)F)cc1 [compound 912]
[2]
  Insecticidal effect on diamondback moth (Test Example 1), judged grade: A (100)

## Cc1cc(Cl)ccc1NC(=O)c1c(C(=O)NC(C)C)ccc(Br)c1Br [compound 343]
[2]; [5]
  Insecticidal effect, Test Example 1: A (100)

## C=CCNC(=O)c1ccccc1C(=O)Nc1ccc(C(F)(F)F)cc1 [compound 865]
[2]
  Insecticidal effect on diamondback moth (Test Example 1), judged grade: A (100)

## CCCNC(=O)c1cccc(Cl)c1C(=O)Nc1ccc(OC(F)F)cc1C [compound 16]
[2]; [5]
  Insecticidal effect, Test Example 1: A (100)

## Cc1cc(NC(=O)c2cccc(I)c2C(=O)NC(C)C)c(Br)cc1C(F)(C(F)(F)F)C(F)(F)F [compound 1698]
[2]
  Insecticidal effect (Test Example 1), judged from mortality: A (100)

## Cc1cc(OC(F)F)ccc1NC(=O)c1cccc(Cl)c1C(=O)NCc1ccccc1 [compound 1421]
[2]; [6]
  Insecticidal effect, Test Example 1: A (100)

## Cc1cc(C(F)(F)C(F)(F)F)ccc1NC(=O)c1cccc(Cl)c1C(=O)N(C)Cc1ccccc1F [compound 1579]
[2]
  Insecticidal effect (Test Example 1), judged from mortality: A (100)

## Cc1c(Cl)ccc(NC(=O)c2c(Br)cccc2C(=O)NC(C)C)c1C [compound 308]
[2]; [5]
  Insecticidal effect, Test Example 1: A (100)

## CC(C)NC(=O)c1c(C(=O)Nc2ccc(F)cc2F)cccc1[N+](=O)[O-] [compound 639]
[2]
  Insecticidal effect on diamondback moth (Test Example 1), judged grade: A (100)

## CC(C)NC(=O)c1c(C(=O)Nc2ccc(C#N)cc2)cccc1[N+](=O)[O-] [compound 598]
[2]
  Insecticidal effect on diamondback moth (Test Example 1), judged grade: A (100)

## CC(C)NC(=O)c1cccc(Cl)c1C(=O)Nc1ccc(SCC(F)(F)F)cc1 [compound 202]
[2]; [5]
  Insecticidal effect, Test Example 1: A (100)

## Cc1cc(C(F)(F)C(F)(F)F)ccc1NC(=O)c1c(SC(F)(F)F)ccc(Cl)c1C(=O)NC(C)C [compound 1802]
[2]
  Insecticidal effect (Test Example 1), judged from mortality: A (100)

## Cc1cc(Cl)ccc1NC(=O)c1cccc([S+]([O-])C(C)C)c1C(=O)NC(C)C (centres unmarked) [compound 793]
[2]
  Insecticidal effect on diamondback moth (Test Example 1), judged grade: A (100)

## Cc1c(Cl)cccc1NC(=O)c1cc(Cl)ccc1C(=O)NC(C)C [compound 189]
[2]; [5]
  Insecticidal effect, Test Example 1: A (100)

## Cc1cc(OC(F)(F)F)ccc1NC(=O)c1ccccc1C(=O)NC(C)C [compound 59]
[2]; [5]
  Insecticidal effect, Test Example 1: A (100)

## CC(C)NC(=O)c1c(C(=O)Nc2ccc(F)cc2)cccc1[N+](=O)[O-] [compound 594]
[2]
  Insecticidal effect on diamondback moth (Test Example 1), judged grade: A (100)

## CC(=O)c1ccc(NC(=O)c2c(Cl)cccc2C(=O)NC(C)C)cc1 [compound 207]
[2]; [5]
  Insecticidal effect, Test Example 1: A (100)

## CC(C)NC(=O)c1ccccc1C(=O)Nc1ccc(SCC(F)(F)F)cc1 [compound 33]
[2]; [5]
  Insecticidal effect, Test Example 1: A (100)

## O=C(Nc1ccc(C(F)(F)F)cc1)c1ccccc1C(=O)NC1CC1 [compound 848]
[2]
  Insecticidal effect on diamondback moth (Test Example 1), judged grade: A (100)

## Cc1ccc(Cl)cc1NC(=O)c1ccccc1C(=O)NCC(F)(F)F [compound 864]
[2]
  Insecticidal effect on diamondback moth (Test Example 1), judged grade: A (100)

## CC(C)NC(=O)c1cccc(-c2ccccc2)c1C(=O)Nc1ccc(OC(F)(F)F)cc1 [compound 808]
[2]
  Insecticidal effect on diamondback moth (Test Example 1), judged grade: A (100)

## CC(C)NC(=O)c1cc(Cl)ccc1C(=O)Nc1cccc(Cl)c1Cl [compound 175]
[2]; [5]
  Insecticidal effect, Test Example 1: A (100)

## Cc1cc(C(F)(F)C(F)(F)F)ccc1NC(=O)c1c(Cl)cccc1C(=O)N[C@@H](C)CO [compound 1446]
[2]
  Insecticidal effect (Test Example 1), judged from mortality: A (100)

## CC(C)NC(=O)c1c(C(=O)Nc2ccc(OC(F)F)c(Cl)c2)cccc1[N+](=O)[O-] [compound 658]
[2]
  Insecticidal effect on diamondback moth (Test Example 1), judged grade: A (100)

## Cc1cc(C(F)(F)C(F)(F)F)ccc1NC(=O)c1c(I)cccc1C(=O)NC(C)C(C)C (centres unmarked) [compound 1034]
[2]; [6]
  Insecticidal effect, Test Example 1: A (100)
